{"source": "patent US10759783B2", "about": "“Biaryl inhibitors of Bruton'S tyrosine kinase” (BIOGEN MA INC., priority 2013, dated 2020)", "key": {"[1]": {"target": "BTK (phospho-BTK) in human whole blood (Homo sapiens, UniProt Q06187)", "sequence (Q06187 whole entry)": "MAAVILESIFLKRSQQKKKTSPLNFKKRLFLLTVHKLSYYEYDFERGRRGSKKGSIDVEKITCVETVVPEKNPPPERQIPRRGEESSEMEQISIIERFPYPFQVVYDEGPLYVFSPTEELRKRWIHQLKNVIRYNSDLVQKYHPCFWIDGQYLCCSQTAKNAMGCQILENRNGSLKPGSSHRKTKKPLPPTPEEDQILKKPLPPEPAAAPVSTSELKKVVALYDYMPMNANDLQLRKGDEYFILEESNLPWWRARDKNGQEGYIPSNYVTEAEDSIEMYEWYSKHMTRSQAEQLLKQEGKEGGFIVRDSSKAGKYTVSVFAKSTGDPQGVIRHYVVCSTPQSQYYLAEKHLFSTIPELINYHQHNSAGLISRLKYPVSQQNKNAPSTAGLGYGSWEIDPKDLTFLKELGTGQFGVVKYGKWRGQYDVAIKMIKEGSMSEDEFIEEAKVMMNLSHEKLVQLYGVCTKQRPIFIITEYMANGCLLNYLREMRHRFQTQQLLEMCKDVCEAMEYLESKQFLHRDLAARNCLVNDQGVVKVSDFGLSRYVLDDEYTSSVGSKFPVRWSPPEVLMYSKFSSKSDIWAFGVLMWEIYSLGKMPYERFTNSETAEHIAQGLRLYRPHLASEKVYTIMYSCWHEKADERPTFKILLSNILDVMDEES", "assay": "In vitro PD assay in human whole blood (pBTK assay)"}, "BTK enzyme": {"target": "T1, BTK enzyme (Homo sapiens, UniProt Q06187)", "T1 construct": "purchased Upstate 14-552", "T1 sequence (Q06187 whole entry)": "as above", "assay": "In vitro BTK kinase assay: BTK-POLYGAT-LS assay", "assay_type": "biochemical", "conditions": "ATP 10 μM, read-out: IC50 (10uMATP)", "outline": "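Human BTK activity was measured with final 10 μM ATP and 100 nM polyGAT substrate in pH 7.5 Tris buffer with 10 mM MgCl2, DTT, Triton X-100 and casein.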"}}, "note": "Where two headings read alike, the source gives them in different places."}
{"smiles": "CCn1cc(Nc2nccc(-c3ccc(CNC(=O)N4CCC(C(C)(C)C)C4)c(C)c3)n2)cn1", "note": "(stereo not shown) [Example I-305, 3-tert-butyl-N-[[4-[2-[(1-ethylpyrazol-4-yl)amino]pyrimidin-4-yl]-2-methyl-phenyl]methyl]pyrrolidine-1-carboxamide]", "values": [{"measurement": "IC50", "setting": "[1]", "result": "< 500", "unit": "nM"}, {"measurement": "IC50", "setting": "BTK enzyme", "result": "< 10", "unit": "nM"}]}
{"smiles": "CC(C)OC1CN(C(=O)NCc2ccc(-c3ccnc(Nc4cnn([C@H]5CCOC5)c4)n3)cc2C(F)(F)F)C1", "note": "[Example I-313, 3-isopropoxy-N[[4-[2-[[1-[(3S)-tetrahydrofuran-3-yl]pyrazol-4-yl]amino]pyrimidin-4-yl]-2-(trifluoromethyl)phenyl]methyl]azetidine-1-carboxamide]", "values": [{"measurement": "IC50", "setting": "[1]", "result": "< 500", "unit": "nM"}, {"measurement": "IC50", "setting": "BTK enzyme", "result": "< 10", "unit": "nM"}]}
{"smiles": "CCn1cc(Nc2nccc(-c3ccc4c(c3)CCCCC4NC(=O)N3CCC(C(C)(C)C)C3)n2)cn1", "note": "(stereo not shown) [Example I-328]", "values": [{"measurement": "IC50", "setting": "[1]", "result": "< 500", "unit": "nM"}, {"measurement": "IC50", "setting": "BTK enzyme", "result": "< 10", "unit": "nM"}]}
{"smiles": "Cc1cc(-c2cc(Nc3cc4n(n3)CCCN(CCO)C4)ncn2)ccc1CNC(=O)c1cnn(C(C)(C)C)c1", "note": "[Example I-235, 1-(tert-butyl)-N-(4-(6-((5-(2-hydroxyethyl)-5,6,7,8-tetrahydro-4H-pyrazolo[1,5-a][1,4]diazepin-2-yl)amino)pyrimidin-4-yl)-2-methylbenzyl)-1H-pyrazole-4-carboxamide]", "values": [{"measurement": "IC50", "setting": "[1]", "result": "< 500", "unit": "nM"}, {"measurement": "IC50", "setting": "BTK enzyme", "result": "< 10", "unit": "nM"}]}
{"smiles": "Cc1cc(-c2cc(Nc3cc4n(n3)CCNC4)ncn2)ccc1CNC(=O)c1cnc(C(C)(C)C)s1", "note": "[Example I-270, 2-tert-butyl-N-[[2-methyl-4-[6-(4,5,6,7-tetrahydropyrazolo[1,5-a]pyrazin-2-ylamino)pyrimidin-4-yl]phenyl]methyl]thiazole-5-carboxamide]", "values": [{"measurement": "IC50", "setting": "[1]", "result": "< 500", "unit": "nM"}, {"measurement": "IC50", "setting": "BTK enzyme", "result": "< 10", "unit": "nM"}]}
{"smiles": "CC(C)(C)C1CCN(C(=O)NCc2ccc(-c3ccnc(Nc4cnn([C@H]5CCNC5)c4)n3)cc2C(F)(F)F)C1", "note": "(stereo partly drawn) [Example I-316, 3-tert-butyl-N-[[4-[2-[[1-[(3S)-pyrrolidin-3-yl]pyrazol-4-yl]amino]pyrimidin-4-yl]-2-(trifluoromethyl)phenyl]methyl]pyrrolidine-1-carboxamide]", "values": [{"measurement": "IC50", "setting": "[1]", "result": "< 500", "unit": "nM"}, {"measurement": "IC50", "setting": "BTK enzyme", "result": "< 10", "unit": "nM"}]}
{"smiles": "Cc1cc(-c2cc(Nc3cc4n(n3)CCN(C)C4)ncn2)ccc1CNC(=O)N1CC[C@@H](C(C)(C)C)C1", "note": "[Example I-244, (S)-3-(tert-butyl)-N-(2-methyl-4-(6-((5-methyl-4,5,6,7-tetrahydropyrazolo[1,5-a]pyrazin-2-yl)amino)pyrimidin-4-yl)benzyl)pyrrolidine-1-carboxamide]", "values": [{"measurement": "IC50", "setting": "[1]", "result": "< 500", "unit": "nM"}, {"measurement": "IC50", "setting": "BTK enzyme", "result": "< 10", "unit": "nM"}]}
{"smiles": "Cc1cc(-c2ccnc(Nc3cnn4c3CCC4)n2)ccc1CNC(=O)N1CCC(C(C)(C)C)C1", "note": "(stereo not shown) [Example I-194, 3-(tert-butyl)-N-(4-(2-((5,6-dihydro-4H-pyrrolo[1,2-b]pyrazol-3-yl)amino)pyrimidin-4-yl)-2-methylbenzyl)pyrrolidine-1-carboxamide]", "values": [{"measurement": "IC50", "setting": "[1]", "result": "< 500", "unit": "nM"}, {"measurement": "IC50", "setting": "BTK enzyme", "result": "< 10", "unit": "nM"}]}
{"smiles": "Cc1cc(-c2ccnc(Nc3cnn(C4CN(C)C4)c3)n2)ccc1CNC(=O)N1CC(OC(C)(C)C)C1", "note": "[Example I-215, 3-(tert-butoxy)-N-(2-methyl-4-(2-((1-(1-methylazetidin-3-yl)-1H-pyrazol-4-yl)amino)pyrimidin-4-yl)benzyl) azetidine-1-carboxamide]", "values": [{"measurement": "IC50", "setting": "[1]", "result": "< 500", "unit": "nM"}, {"measurement": "IC50", "setting": "BTK enzyme", "result": "< 10", "unit": "nM"}]}
{"smiles": "Cc1cc(-c2ccnc(Nc3cnn(C(C)C)c3)n2)ccc1CNC(=O)N1CC(OC(C)(C)C)C1", "note": "[Example I-306, 3-tert-butoxy-N-[[4-[2-[(1-isopropylpyrazol-4-yl)amino]pyrimidin-4-yl]-2-methyl-phenyl]methyl]azetidine-1-carboxamide]", "values": [{"measurement": "IC50", "setting": "[1]; read-out: pBTK IC50, human whole blood, 37° C. for 30 min", "result": "< 500", "unit": "nM"}, {"measurement": "IC50", "setting": "BTK enzyme", "result": "< 10", "unit": "nM"}]}
{"smiles": "Cc1cc(-c2cc(Nc3cc4n(n3)CCN(C)C4)ncn2)ccc1CNC(=O)c1cnc(C(C)(C)C)s1", "note": "[Example I-63, 2-(tert-butyl)-N-(2-methyl-4-(6-((5-methyl-4,5,6,7-tetrahydropyrazolo[1,5-a]pyrazin-2-yl)amino)pyrimidin-4-yl)benzyl)thiazole-5-carboxamide]", "values": [{"measurement": "IC50", "setting": "[1]", "result": "< 500", "unit": "nM"}, {"measurement": "IC50", "setting": "BTK enzyme", "result": "< 10", "unit": "nM"}]}
